In patent US20200246438A1, “TARGETING GDF6 AND BMP SIGNALING FOR ANTI-MELANOMA THERAPY” (UNIVERSITY OF MASSACHUSETTS, priority 2015, published 2020):
“Also recorded” adds a separate entry of the source.

Assays:
[1] = tested on: A375 melanoma cells; assay: clonogenic growth / colony formation assay; format: cell-based, human; conditions: A375-EMPTY vs A375-SMAD1DVD cells treated with DMH1
Description: (§1) For growth curves 50,000 live cells were seeded per well in a 6-well tissue culture plate on day 0. The numbers of live cells were calculated every day using an automated cell counter (Nexcelom Bioscience Cellometer Auto T4) following standard procedures. All assays were performed with technical replicates. For clonogenic assays, 3,000 live cells were seeded in a 10 cm tissue culture plate. After 3 weeks, colonies were fixed and stained using bromophenol blue in acetone. ImageJ was used to quantify the number of colonies. In assays with DMH1 treatment, control or DMH1-containing media was replaced every other day. For soft agar assays a 0.5% bottom layer (1:1 with 1% agar and 2×DMEM with 20% FBS) and a 0.3% top layer (1:1 with 0.6% agar and 2×DMEM with 20% FBS) were used. 3,000 live cells per well of a 6-well tissue culture plate were added in the top layer. Media was added initially then replaced every 3 days. After 3 weeks, colonies were stained with nitroblue tetrazolium chloride overnight at 37° C. Once stained, individual wells were photographed, and ImageJ was used to count the number of colonies. All these assays were done in triplicate, and experiments were repeated at least twice. A representative image of each has been shown.

[2] = tested on: A375 melanoma cells; assay: growth curves by direct cell counting, A375; format: cell-based, human; conditions: 10 μM DMH1 vs control media
Description: as §1

[3] = tested on: SKMEL28 melanoma cells; assay: growth curves by direct cell counting, SKMEL28; format: cell-based, human; conditions: SKMEL28 cells treated with DMH1 vs control
Description: as §1

[4] = tested on: BMP signaling (phospho-SMAD1); assay: Western blot of BMP signaling (phospho-SMAD1) in DMH1-treated A375 cells; format: cell-based, human; conditions: 10 μM DMH1, Western blot
Description: Protein extracts were prepared as previously described (S. D. Epstein LB, Hunte-McDonough B, harris C A, Cytokines: A pratical approach (Balkwill F R., ed). 81-93 (1991)). Extracts were separated on 12% SDS-PAGE gels. Blots were probed with primary antibodies (GDF6 (Sigma PRS4691; 1:1000), phospho-SMAD1/5/8 (Cell Signaling 13820; 1:1000), SMAD1 (Cell Signaling 9743; 1:500), Total SMAD1/5/8 (Santa Cruz sc-6031-R; 1:1000), FLAG (Sigma F3165, 1:2000), GAPDH (Abcam 8245; 1:2000)) overnight at 4° C., washed five times in TBS plus 0.1% Tween (TBST) and then incubated with the appropriate HRP-conjugated secondary antibody (Jackson Labs) for 1 hour at room temperature. Membranes were washed five times in TBST and visualized on autoradiography film after incubating with ECL reagent (Supersignal West Pico or Supersignal West Femto; Thermo Scientific).

[5] = tested on: A375 melanoma cells; assay: A375 mouse xenografts treated with DMH1, tumor volume; format: in vivo; conditions: 25 mg/kg DMH1 intraperitoneally every other day vs vehicle
Text: All animal protocols were approved by the UMMS Institution Animal Care and Use Committee (A-2016, A-2171). Mice were randomly allocated to individual experimental groups. No blinding was done as animal groups were identified by tagging and cage labeling. Animals were excluded, according to pre-established criteria, if the tumor volume reached>1,000 mm^3; if tumor size or location affected the mobility or general health of animal, the animal was euthanized and excluded from the experiment or the complete experiment was terminated. A375 cells stably expressing an EGFP or GDF6 or SMAD1 shRNA and/or empty vector or GDF6-expressing vector or SMAD1DVD-overexpressing vector were subcutaneously injected into the flanks of 6-8-week-old BALB/c nu/nu female mice (Taconic Farms) to produce orthotopic primary tumor. Primary tumor growth was monitored every 3 days with calipers, and the tumor volume was calculated as described previously (C. Gazin, N. Wajapeyee, S. Gobeil, C. M. Virbasius, M. R. Green, An elaborate pathway required for Ras-mediated epigenetic silencing. Nature 449, 1073-1077 (2007)). For GDF6 knockdown, SMAD1 knockdown and epistasis experiments, […] live cells were injected. For GDF6 overexpression experiments, 1×10^6 live cells were injected. […] The growth of the tumor was monitored as described above. […]

[6] = tested on: MeWo melanoma cells; assay: proliferation of GDF6-knockdown cells supplemented with recombinant GDF6 protein; format: cell-based, human; conditions: MeWo cells treated with shRNAs targeting GDF6, recombinant GDF6 protein added to culture media

CC(C)Oc1ccc(-c2cnc3c(-c4ccnc5ccccc45)cnn3c2)cc1 [DMH1]
growth defects caused by DMH1 in SMAD1DVD-expressing cells (colony formation) [1]: reversed by SMAD1DVD
cell growth (growth curves) [2]: grew more slowly; also recorded: inhibits A375 melanoma cell growth
cell growth (growth curves) [3]: grew more slowly
level of phospho-SMAD1 relative to total SMAD protein [4]: reduced level of phospho-SMAD1
tumor volume / tumor growth [5]: smaller tumors arose and grew more slowly; also recorded: decreased tumorigenicity; also recorded: abrogates melanoma growth

B1: recombinant GDF6 protein: recombinant GDF6 protein added to culture media; soluble, extracellular BMP ligand (BMP13) (protein, UniProt Q6KF10 336-455, looked up)
Growth/differentiation factor …: TAFASRHGKRHGKKSRLRCSKKPLHVNFKELGWDDWIIAPLEYEAYHCEGVCDFPLRSHLEPTNHAIIQTLMNSMDPGSTPPSCCVPTKLTPISILYIDAGNNVVYKQYEDMVVESCGCR
proliferation of GDF6-knockdown cells [6]: restored
proliferation of GDF6-knockdown cells ([6]; listed as recombinant GDF6): able to sustain their proliferation
